The experiment has as its system pain hypersensitivity (allodynia) after chronic constriction injury to the sciatic nerve. Briefly: Von Frey 50% withdrawal threshold in rats with chronic constriction injury to the sciatic nerve (neuropathic pain). In kind it is in vivo, Sprague-Dawley rats. The conditions noted are these: allodynic rats, 500 ng single intrathecal injection. On the procedure: Eleven adult, Sprague-Dawley rats received an experimental chronic constriction injury to the sciatic nerve (Mosconi & Kruger, 1996, Pain 64:37-57). Pain hypersensitivity, indicative of neuropathic pain, increased progressively over a two week interval and was monitored using the Von Frey technique (Chaplan et al., 1994, J. Neurosci. Methods 53:55-63). Following the development of allodynia (characterized by a 50% withdrawal threshold (WD50) of ≦2.0 g), rats were administered 500 ng tricyclodecan-9-yl-xanthogenate by intrathecal catheter, the tricyclodecan-9-yl-xanthogenate was prepared in a solution of saline (0.9% NaCl) with 10% v/v dimethyl sulfoxide. Tricyclodecan-9-yl-xanthogenate is available from EMD Biosciences (a division of Calbiochem). A solution of saline (0.9% NaCl) with 10% v/v dimethyl sulfoxide was injected into control rats as a vehicle. The volume of the vehicle administered was the same as for the PLCγ inhibitor solution.
Seven allodynic rats received single intrathecal injections of a vehicle, whereas 4 rats received single injections of tricyclodecan-9-yl-xanthogenate; the mean WD50 for both groups was 1.9±0.2 g prior to injections. […] This significant reduction of pain hypersensitivity persisted for greater than 6 hours.

The structures appear in SMILES notation.

As for `S=C(S)OC1CC2CC1C1CCCC21` (centres unmarked) [tricyclodecan-9-yl-xanthogenate], the “persistence of significant reduction of pain hypersensitivity” value is reported as “greater than 6 hours”. Moreover, the “50% withdrawal threshold (WD50)” value (4 hours post-injection, pre-injection WD50 1.9±0.2 g, vehicle 4.1±0.7 g, p<0.05) was 8.8 ± 2.1 g.

The record behind these values is patent US7718382B2, “Method for identifying compounds for treatment of pain” (Universite Laval, priority 2004, dated 2010).
